Assay results from US6713638B2, “2-amino-3-aroyl-4,5 alkylthiophenes: agonist allosteric enhancers at human A1 adenosine receptors” (priority 2001, dated 2004).
“Also recorded” adds a separate entry of the source.

How the values were obtained:
[1] = target: T1, hA1AR (Homo sapiens, UniProt P30542); assay: Assay of AE (allosteric enhancer) activity: slowing of 125I-ABA dissociation from the A1AR-G protein ternary complex; assay type: binding; details: CHO-K1 membranes; for AE Score, %: 0.1 mM final AE, specifically bound 125I-ABA remaining after 10 minutes of dissociation, Mean ± SEM (N = 3); for AE activity (in words): hA1AR
T1 construct: expressed in transfected cells; membranes
T1 sequence (P30542 1-326): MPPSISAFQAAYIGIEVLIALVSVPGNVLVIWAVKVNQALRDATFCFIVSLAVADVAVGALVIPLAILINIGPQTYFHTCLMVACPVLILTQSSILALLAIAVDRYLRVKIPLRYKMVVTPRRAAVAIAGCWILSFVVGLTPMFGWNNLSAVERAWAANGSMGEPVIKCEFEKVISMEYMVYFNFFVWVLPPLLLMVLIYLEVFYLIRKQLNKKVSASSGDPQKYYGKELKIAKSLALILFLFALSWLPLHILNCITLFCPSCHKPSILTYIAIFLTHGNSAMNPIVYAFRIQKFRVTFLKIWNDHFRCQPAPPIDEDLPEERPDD
Source text: The allosteric enhancer (AE) activity was studied at the human A1AR (hA1AR) of a panel of compounds consisting of nine 2-amino-3-aroylthiophenes, (3a-i), eight 2-amino-3-benzoyl-4,5-dimethylthiophenes (13a-h), […] 3-aroyl-2-carboxy-4,5-dimethylthiophenes, (17a-e), ten 2-amino-3-benzoyl-5,6-ihydro-4H-cyclopenta[b]thiophenes, (19a-I), fourteen 2-amino-3-benzoyl-4,5,6,7-tetrahyd robenzo-[b]thiophenes, (20a-n), and fifteen 2-amino-3-benzoyl-5,6,7,8-tetrahydro-4H-cyclohepta[b]thiophenes, (21a-o). An in vitro assay employing the A1AR agonist ^125I-N^6-aminobenzyladenosine (^125I-ABA) and membranes from CHO-K1 cells stably expressing the hA1AR measured, as an index of AE activity, the ability of a candidate AE to slow the dissociation of the radioligand from the A1AR-G protein ternary complex.
The assay of AE activity consisted of three phases: formation of the ^125I-ABA-A1AR-G protein ternary complex; binding of the AE to the allosteric site, and dissociation of the complex by adding a combination of an A1AR antagonist (100 μM cyclopentyltheophylline) and 50 µM GTPγS. This procedure detects only AE activity since phase 3 (dissociation) is affected only by the allosteric activity of the test compound and is not affected by competitive antagonist activity. GTPγS is added to accelerate the dissociation process. […] The assay employed membranes from CHO-K1 cells stably expressing the hA1AR. For agonist binding to equilibrium, the incubation mixture consisted of 10 mM HEPES, pH 7.2, containing 0.5 mM MgCl2, 1 U/mL adenosine deaminase, 0.5 nM ^125I-ABA and 10 μg of membrane protein in a final volume of 100 μL. This phase of the assay was allowed to proceed to equilibrium (>90 minutes) at room temperature. At that point phase 2 was initiated by adding 50 μL of a 0.3 mM solution (0.1 mM final) of a candidate AE or DMSO vehicle to rapidly occupy the allosteric site. Stock solutions of AEs (10 mM) were prepared in DMSO. Five minutes later phase 3 was initiated by the addition of 50 μL of a solution containing 400 μM 8-cyclopentyltheophylline and 200 μM GTPγS. Ten minutes later, residual radioligand bound to Aireceptors was trapped on Whatman GF/C glass fiber filters using a Brandel cell harvester, washed 3 times over a 20 second interval and counted in a γ-counter. The percentage of specifically bound agonist remaining after 10 minutes of dissociation was used to calculate the “score” of AE activity:
AE activity score=100×(B−Bo)/(Beq−Bo)
Where B=residual binding (cpm) bound at the end of 10 minutes of dissociation in the presence of an AE, Bo=residual binding (cpm) at the end of 10 minutes of dissociation in the absence of an AE, and Beq=cpm bound at the end of phase 2. A compound with no AE activity has a score of 0 in this assay. An AE which completely arrests agonist dissociation will have a score of 100.

[2] = target: T2, A1AR (Homo sapiens, UniProt P30542); assay: A1AR antagonistic activity: competition with equilibrium binding of [3H]CPX; details: for Antagonist activity, % (% inhibition of specific equilibrium binding of [3H]8-cyclopentyl-1,3-dipropylxanthine): 100 μM, N = 3
T2 sequence (P30542 1-326): T1 sequence (P30542 1-326)
Source text: Several of the candidate AEs had substantial antagonistic activity. However, the AE and antagonist activities are unrelated (r^2=0.057, n=28).

Antagonist activity, % (% inhibition of specific equilibrium binding of [3H]8-cyclopentyl-1,3-dipropylxanthine) [2]	antagonist activity (in words) ([2]; at 100 μM)	Compound	AE Score, % [1]	AE activity (in words) [1]
–	–	Nc1sccc1C(=O)c1ccc(F)cc1 [Compound 3e]	0%	–
–	–	Nc1sccc1C(=O)c1ccc2ccccc2c1 [Compound 3i]	3.2 ± 1.8%	–
–	–	Nc1sc2c(c1C(=O)c1ccc3ccccc3c1)CCCC2 [Compound 20n]	86 ± 1%	–
–	–	Cc1cccc(C(=O)c2c(N)sc(C)c2C)c1 [Compound 13e]	18 ± 0.5%	–
–	–	Cc1sc(N)c(C(=O)c2cccc(-c3ccccc3)c2)c1C [Compound 13g]	12 ± 1.9%	–
–	–	Nc1sccc1C(=O)c1ccc(Br)cc1 [Compound 3g]	0.8 ± 0.3%	–
–	–	Nc1sc2c(c1C(=O)c1ccc(F)cc1)CCCCC2 [Compound 21f]	22 ± 2.7%	–
–	–	3-benzoyl-4,5-dimethylthiophene-2-carboxylic acid [Compound 17a]	0%	–
–	–	Nc1sc2c(c1C(=O)c1cccc(Br)c1)CCCC2 [Compound 20e]	49 ± 1%	–
72%	–	CCOC(=O)c1c(N)sc2c1CCC2 [Compound 19a]	0.4 ± 0.1%	did not support AE activity; also recorded: None of the cycloalkylthiophenes having a 3-carboxyethyl substituent, namely, 19a, 20a and 21a, was active
–	–	Nc1sccc1C(=O)c1ccc(Cl)cc1 [Compound 3f]	0%	–
9%	–	Nc1sc2c(c1C(=O)c1cccc(Cl)c1)CCCCC2 [Compound 21c]	65 ± 8%	–
–	–	Cc1sc(N)c(C(=O)c2ccccc2)c1C [Compound 13a, (2-amino-4,5-dimethyl-thiophen-3-yl)(phenyl)methanone]	9%	–
–	–	Cc1cc(C)c(C(=O)c2c(N)sc(C)c2C)c(C)c1 [Compound 13h]	0%	–
40%	–	Nc1sc2c(c1C(=O)c1ccc(Cl)cc1)CCC2 [Compound 19f]	22 ± 4%	–
19%	–	COc1cccc(C(=O)c2c(N)sc3c2CCCCC3)c1 [Compound 21j]	99 ± 3.1%	–
9%	–	Nc1sc2c(c1C(=O)c1ccc(Cl)cc1)CCCC2 [Compound 20g]	68 ± 10%	–
–	–	Cc1sc(N)c(C(=O)c2cccc(F)c2)c1C [Compound 13b]	0%	–
56%	–	Nc1sc2c(c1C(=O)c1ccc(Br)cc1)CCCC2 [Compound 20h]	83 ± 5%	–
–	–	Nc1sccc1C(=O)c1cccc(F)c1 [Compound 3b]	0%	–
–	–	Cc1sc(C(=O)O)c(C(=O)c2cccc(C(F)(F)F)c2)c1C [Compound 17b]	0%	–
–	–	Nc1sc2c(c1C(=O)c1cccc(Cl)c1)CCC2 [Compound 19c]	16 ± 2%	–
11%	–	Nc1sc2c(c1C(=O)c1ccc(I)cc1)CCCCC2 [Compound 21i]	96 ± 4.7%	–

Antagonist activity, % (% inhibition of specific equilibrium binding of [3H]8-cyclopentyl-1,3-dipropylxanthine) [2]	antagonist activity (in words) ([2]; at 100 μM)	Compound	AE Score, % [1]	AE activity (in words) [1]
2%	–	Nc1sc2c(c1C(=O)c1cccc(Cl)c1)CCCC2 [Compound 20d]	70 ± 9%	–
40%	–	Nc1sc2c(c1C(=O)c1cccc(F)c1)CCCC2 [Compound 20c]	22 ± 5%	–
12%	nearly devoid of antagonist activity	Nc1sc2c(c1C(=O)c1ccc(Br)cc1)CCCCC2 [Compound 21h]	86 ± 3.8%	very high AE activity
31%	–	Nc1sc2c(c1C(=O)c1ccc(I)cc1)CCCC2 [Compound 20i]	86 ± 13%	–
12%	–	Nc1sc2c(c1C(=O)c1ccc(-c3ccccc3)cc1)CCC2 [Compound 19h]	62 ± 5%	–
–	–	Nc1sccc1C(=O)c1cccc(Cl)c1 [Compound 3c]	0%	–
–	–	Nc1sccc1C(=O)c1cccc(Br)c1 [Compound 3d]	0.2 ± 0.03%	–
–	–	Cc1sc2c(c1C)C(c1cccc(F)c1)=Nc1sc(C)c(C)c1C(c1cccc(F)c1)=N2 [Compound 14, 4,9-bis-(3-fluorophenyl)-2,3,7,8-tetramethyl-1,6-dithia-5,10-diaza-dicyclopenta[a,e]-cyclooctene]	–	lacked AE activity
12%	–	Nc1sc2c(c1C(=O)c1cccc(Br)c1)CCCCC2 [Compound 21d]	78 ± 2.6%	–
19%	–	N#Cc1ccc(C(=O)c2c(N)sc3c2CCCC3)cc1 [Compound 20k]	19 ± 0.9%	excellent activity
–	–	Nc1sccc1C(=O)c1ccc(Cl)c(Cl)c1 [Compound 3h]	1.7 ± 0.8%	–
–	–	Nc1sc2c(c1C(=O)c1ccc(Br)cc1)CCC2 [Compound 19g]	70 ± 7%	–
51%	–	Nc1sc2c(c1C(=O)c1ccc(F)cc1)CCCC2 [Compound 20f]	17 ± 3%	–
41%	–	CCOC(=O)c1c(N)sc2c1CCCCC2 [Compound 21a]	0.3 ± 0.01%	did not support AE activity; also recorded: None of the cycloalkylthiophenes having a 3-carboxyethyl substituent, namely, 19a, 20a and 21a, was active
–	–	Nc1sc2c(c1C(=O)c1ccc(Cl)cc1)CCCCC2 [Compound 21g]	65 ± 6.7%	–
45%	–	Nc1sc2c(c1C(=O)c1ccc(C3CCCCC3)cc1)CCCC2 [Compound 20m]	99 ± 6%	–
63%	–	Nc1sc2c(c1C(=O)c1ccccc1)CCC2 [Compound 19b]	20 ± 3.6%	–
–	–	Cc1sc(N)c(C(=O)c2cccc(Cl)c2)c1C [Compound 13c]	14 ± 1%	–
41%	–	Cc1ccc(C(=O)c2c(N)sc3c2CCCC3)cc1 [Compound 20j]	19 ± 7%	–
–	–	Cc1sc(C(=O)O)c(C(=O)c2ccc(-c3ccccc3)cc2)c1C [Compound 17c]	0%	–
–	–	COc1ccc(C(=O)c2c(N)sc3c2CCCCC3)cc1 [Compound 21k]	85 ± 10%	–
–	–	Cc1sc(N)c(C(=O)c2cccc(Br)c2)c1C [Compound 13d]	16 ± 4%	–
–	–	Nc1sc2c(c1C(=O)c1cccc(I)c1)CCCCC2 [Compound 21e]	86 ± 9%	–

Compound	Antagonist activity, % (% inhibition of specific equilibrium binding of [3H]8-cyclopentyl-1,3-dipropylxanthine) [2]	antagonist activity (in words) ([2]; at 100 μM)	AE Score, % [1]	AE activity (in words) [1]
Nc1sc2c(c1C(=O)c1ccccc1)CCCC2 [Compound 20b]	35%	–	19 ± 5%	–
CCOC(=O)c1c(N)sc2c1CCCC2 [Compound 20a]	57%	–	3.5 ± 1.8%	did not support AE activity; also recorded: None of the cycloalkylthiophenes having a 3-carboxyethyl substituent, namely, 19a, 20a and 21a, was active
